Reference: US12180084B2, “Cerium (III) carbonate formulations” (THE REGENTS OF THE UNIVERSITY OF CALIFORNIA, priority 2019, dated 2024)

Assays:
[1] = CR dye photodegradation in ZnO-based sunscreen film (Neutrogena Sheer Zinc Face Mineral Sunscreen SPF 50); settings: 1.5 wt. % added agent relative to sunscreen weight
Description: Therefore, the extent of photodegradation upon UV irradiation in a photoreactor, using the same setup and ZnO-based sunscreen formulation (Neutrogena Sheer Zinc Face™ Mineral Sunscreen SPF 50) as in Examples 7.1 and 7.2 above, except now using Congo Red (CR) rather than MB dye was investigated. For this investigation, a homogeneous composite mixture was prepared by mixing the ZnO-based (Neutrogena Sheer Zinc Face™ Mineral Sunscreen SPF 50) sunscreen, and CR dye in the similar way as described in Example 7.1 for MB, except now using 10^−3 M CR dye (0.6 mL) instead of 10^−3 M MB dye (0.6 mL). Similarly, a composite sunscreen mixture comprising UV-protecting agent was prepared with synthesized Ce2(CO3)3·6H2O (1.5 wt. % relative to sunscreen weight), following the procedure of Example 7.2. The investigation of CR dye photodegradation in sunscreen films, was also conducted in similar fashion as described in Examples 7.1 for the case of no added UV-protecting agent and 7.2 for the case of added Ce2(CO3)3·6H2O UV-protecting agent, except for the following changes. First, the CR sunscreen films were salmon colored on the same filter paper, and the duration of UV-irradiation in the photoreactor was 5 h instead of 4 h. Second, 2 mL of N,N-dimethylformamide was used for CR dye extraction, instead of 2 mL of ethanol as used for MB dye extraction. […]

[2] = CR dye photodegradation in TiO2-based sunscreen film (Neutrogena Broad Spectrum Mineral Sunscreen SPF 60+)
Description: Films on filter paper were fabricated and photoreactor experiments were conducted exactly the same way as described in Example 7.3, using CR dye, except UV irradiation in the photoreactor was conducted for a period of 4 h. These films contained either no UV-protecting agent, 3.0 wt. % of Ce2(CO3)3·6H2O that was synthesized according to Example 3, 3.0 wt. % of commercial Ce2(CO3)3·xH2O (Acros Organics), or 3.0 wt. % of ZnO (NANOBYK-3840). […] Upon adding 3 wt. % of Ce2(CO3)3·6H2O synthesized according to Example 3 to the sunscreen formulation, a decrease in the amount of CR dye photodegradation to 15±1% is observed. […] When cerium carbonate consisting of Ce2(CO3)3·xH2O from Acros Organics is instead used in place of Ce2(CO3)3·6H2O synthesized according to Example 3, photoprotection with 24±2% CR dye photodegradation is observed. The properties of Ce2(CO3)3·xH2O from Acros Organics have been ascribed in Example 4, and these aspects are borne out in conjunction with sunscreen-based formulations here as well. When instead of cerium carbonate ZnO (NANOBYK-3840) is used as a UV-protecting agent, less effect on CR dye photodegradation is observed. This is a similar outcome to observations with MB dye and ZnO-based sunscreen formulation in Example 7.2.
The amount of Ce2(CO3)3·6H2O synthesized according to Example 3 that was incorporated into the TiO2-based sunscreen was increased to 5.0 wt. %, and results are shown in FIGS. 23A-23B and are summarized in Table 4. […] There is a slight diminishing return for adding Ce2(CO3)3·6H2O both here and in Example 7.2, but the effect of increasing Ce2(CO3)3·6H2O on organic-molecule photoprotection is much more pronounced than in the case of ZnO.

- % of CR dye photodegradation after 5 h of UV irradiation in photoreactor [1]: 9±1%
- % of CR dye photodegradation after 5 h of UV irradiation in photoreactor ([1]; listed as Ce2(CO3)3•6H2O synthesized according to Example 3): 9 ± 1%
- % of CR dye photodegradation after 4 h of UV irradiation in photoreactor ([2]; 3.0 wt. % added agent relative to sunscreen weight, listed as Ce2(CO3)3·6H2O synthesized according to Example 3): 15±1%
- % of CR dye photodegradation after 4 h of UV irradiation in photoreactor ([2]; 3.0 wt. % added agent relative to sunscreen weight, listed as Ce2(CO3)3•6H2O synthesized according to Example 3): 15 ± 1%
- % of CR dye photodegradation after 4 h of UV irradiation in photoreactor ([2]; 5.0 wt. % added agent relative to sunscreen weight): 10 ± 1%
Structure (SMILES): O.O.O.O.O.O.O=C([O-])[O-].O=C([O-])[O-].O=C([O-])[O-].[Ce+3].[Ce+3] [Ce2(CO3)3·6H2O]
